Assay results from patent publication US5688824A, “Use of leflunomide to prevent or control xenograft rejection” (priority 1996, dated 1997).
Read-outs that look alike come from different tables or passages of the source.

Experiments:
human T-cell = conditions: stimulated by allogeneic lymphocytes, anti-CD3 or anti-CD28 with PMA, or IL-2 or IL-2 with PMA; cited from earlier work
[1] = tested on: rejection of concordant hamster to rat cardiac xenografts; experiment: hamster to rat concordant cardiac xenograft rejection; assay type: in vivo, Golden Syrian hamster donor, Lewis (LEW) rat recipient
Excerpt: The fundamental design of this experiment was to determine a dose response curve using leflunomide as monotherapy, CsA as monotherapy, and both used as combination therapy. End points used to assess efficacy were duration of time to rejection, mortality, histologic differences among the treatment groups, and donor specific antibody responses.
Male LEW rats weighing approximately 200 grams and male Golden Syrian hamsters weighing approximately 150 grams (Harlan, Sprague, Dawley, Indianapolis, Ind.) were allowed five to ten days of acclimatization before surgery was performed. Ketamine-xylazine anesthesia was used in all animals and food and water were freely allowed post-operatively.
Heart transplantation was performed according to the technique of Ono et al., Cardiovasc. […] Cardiac xenograft survival was determined by daily palpation, and rejection was considered complete when the impulse was undetectable. CsA, in its intravenous form (Sandimmune, Sandoz Corporation, East Hanover, N.J.) was administered daily by intramuscular injection to the rat hind limbs. Leflunomide (HWA-486, Hoechst AG, Germany) suspended in 1% carboxymethylcellulose was administered by gavage daily. Immunosuppression therapy was started on the day of surgery unless otherwise specified.
The transplanted animals were assigned to one control group and twelve treatment groups, with dosing at 2.5, 5, 10, 15 and 20 mg/kg of leflunomide, and 10 and 20 mg/kg of CsA. In two groups CsA was kept at 10 mg/kg while leflunomide was dosed at 5 or 10 mg/kg. Three additional treatment groups were included in which leflunomide monotherapy was started seven days before transplantation, or two or three days after transplantation.
The graft heart was excised after cessation of heart beat. Part of the heart was snap frozen in liquid nitrogen and stored at -70° C.; the remainder was fixed in formalin and stained with hematoxylin and eosin to determine pathological changes. The frozen tissue was stained for IgM and IgG deposition using ABC Technique according to Hsu et al., J. Histochem. Cytochem., 29:577 (1981).

[2] = tested on: xenophile antibodies to human peripheral blood lymphocytes (PBL); conditions: cited from earlier work
[3] = tested on: chronic rejection of rat cardiac allografts; experiment: chronic rejection of rat cardiac allografts (LEW to F-344), histologic scoring of arterial intimal thickening; assay type: in vivo
Experimental: These rats share major histocompatibility antigens but differ at minor histocompatibility loci. A short course of immunosuppression results in a slow chronic rejection that gradually destroys the graft, with the appearance of reproducible histology similar to the chronic rejection seen in humans.
Donor and recipient animals were anesthetized with Ketamine/Xylazine (Fort Dodge, Iowa) 100/5 mg/kg. […] Cardiac allograft survival was determined by daily abdominal palpation, and rejection was considered complete upon cessation of heart beat.
The three control groups were given no treatment and were sacrificed at designated 30-day intervals to observe the development of chronic rejection. The treatment groups were administered daily doses of leflunomide or leflunomide and CsA according to Table 1 below, beginning at day 30 and continuing to day 60 or day 90. CsA in oral form (Sandimmune, Sandoz Corporation, East Hanover, N.J.) was administered at 2, 5 or 10 mg/kg to rats by gavage.
Upon sacrifice, the heart allograft was removed, serially sectioned into approximately 2-mm slices, and fixed in 10% buffered formalin overnight. The sections were embedded in paraffin and stained with hematoxylin and eosin, Verhoeff's elastin stain and Masson's trichrome stain to evaluate pathologic changes and to score graft arterial intimal thickening. The remaining sections were immunostained using standard indirect avidin-biotin techniques (Vectastain ABC-Elite, Vector Laboratories, Burlingame, Calif.) with monoclonal antibodies against smooth muscle actin (DAKO, Carpin Terra, Calif.) to evaluate intimal smooth muscle proliferation, and with polyclonal antibodies against phosphotyrosine to evaluate tyrosine kinase activity by counting phosphotyrosine positive cells. […] Allospecific antibody titres among the groups were compared using the unpaired Student's t-test.
The sections were examined by light microscopy, and 20 to 70 arteries in each allograft were blindly scored for severity of arterial intimal thickening according to the general standard of Adams et al., supra, using the following histological scores: a score of 0 was a normal artery; a score of 1, intimal thickening up to approximately 50% of the perimeter of the vessel, with less than 20% luminal compromise; a score of 2, intimal thickening involving between 50% and 100% of the perimeter of the vessel, with less than 20% luminal compromise; score of 3, circumferential intimal thickening, with more than 20% but less than 50% luminal compromise; score of 4, circumferential intimal thickening, with more than 50% but less than 80% luminal compromise; score of 5, circumferential intimal thickening, with more than 80% luminal compromise. […] Statistical comparisons of histological scores were performed using the Mann-Whitney U--Wilcoxon Rank Sum W Test.

[4] = tested on: cardiac allografts, established acute rejection; conditions: cited from earlier work; for mean survival time of the cardiac allografts: 7 days
renal allograft = conditions: cited from earlier work
[5] = tested on: tubulointerstitial nephritis; conditions: BN rats, cited from earlier work
[6] = tested on: proteoglycan-induced arthritis; conditions: BALB/c mouse; cited from earlier work
[7] = Lef 15 mg/kg, day began 0, group 5, listed as Lef

Cc1oncc1C(=O)Nc1ccc(C(F)(F)F)cc1 [leflunomide, N-(4-trifluoromethylphenyl)-5-methylisoxazol-4-carboxamide]
inhibition of human T-cell proliferation (human T-cell): inhibit human T-cell proliferation | graft histology ([1]; 2.5 mg/kg leflunomide, rejected grafts): Interstitial hemorrhage, focal vascular thrombosis and myocardial necrosis with sparse polymorphonuclear cellular infiltration | graft histology ([1]; 5.0 mg/kg leflunomide, rejected grafts): Interstitial hemorrhage, focal vascular thrombosis and myocardial necrosis with sparse polymorphonuclear cellular infiltration | graft histology ([1]; 15 mg/kg leflunomide monotherapy, long-term grafts): myocardial fibrosis, moderate mononuclear cell infiltration and arterial thickening, consistent with chronic rejection | Mean Survival ± SD ([1]; Lef 2.5 mg/kg, day began 0, group 2): 5.0 ± 0.6 days | Mean Survival ± SD ([1]; Lef 5 mg/kg, day began 0, group 3): 7.7 ± 2.5 days | Graft Survival for Each Subject ([1]; Lef 5 mg/kg, day began 0, group 3, listed as Lef): 8,14 days | Mean Survival ± SD ([1]; Lef 10 mg/kg, day began 0, group 4): 52.0 ± 20.2 days | Mean Survival ± SD ([1]; Lef 10 mg/kg, day began +2, group 12): 58.0 ± 13.7 days | Graft Survival for Each Subject ([1]; Lef 10 mg/kg, day began +2, group 12, listed as Lef): 76,77 days | Mean Survival ± SD ([1]; Lef 10 mg/kg, day began +3, group 13): 3.7 ± 0.5 days | Mean Survival ± SD ([1]; Lef 10 mg/kg, day began -7, group 11): 64.0 ± 13.3 days | Mean Survival ± SD ([1]; Lef 15 mg/kg, day began 0, group 5): 76.5 ± 21 days | Graft Survival for Each Subject [1, 7]: 100,105 days | Mean Survival ± SD [1, 7]: 76.5 ± 21.1 days | Mean Survival ± SD ([1]; Lef 20 mg/kg, day began 0, group 6): 58.9 ± 28.1 days | Graft Survival for Each Subject ([1]; Lef 20 mg/kg, day began 0, group 6, listed as Lef): 100 days | time to rejection of the graft ([1]; initiation of leflunomide delayed until day 3, all animals): ≤ 24 h | toxicity ([1]; leflunomide 20 mg/kg): lethal toxicity appeared | optimal dose ([1]; leflunomide monotherapy): 15 mg/kg | control of xenograft rejection ([1]; leflunomide monotherapy, high doses causing toxicity): unable to totally control xenograft rejection | minimal effective dose ([1]; leflunomide monotherapy, read-out: dose at which graft survival exceeded that of untreated controls): 10 mg/kg | effect of start time on length of graft survival ([1]; leflunomide started seven days before or two days after transplantation): no significant effect on length of graft survival | pre-existing, natural xenophile antibodies ([2]; 10 mg/kg/day for 10 days): decrease in pre-existing, natural xenophile antibodies | xenophile antibody production ([2]; 3 or 10 mg/kg/day from day -4 to day +10, sensitized rats): inhibited xenophile antibody production in a dose-dependent manner | effect on chronic rejection process ([3]; 5 mg/kg (each) from day 30, 10 mg/kg (each) day 60 to 90): able to halt the progression of chronic rejection and partially reverse the process of arterial thickening | mononuclear cell infiltration, myocardial fibrosis, smooth muscle proliferation ([3]; 5 mg/kg (each) from day 30, 10 mg/kg (each) day 60 to 90, day 90): Interstitial mononuclear cell infiltration and myocardial fibrosis were mild | arterial intimal thickening, change vs control ([3]; 5 mg/kg (each) from day 30, day 60): did not significantly improve by day 60 | Histological Scores (mean vascular histologic score) ([3]; Lef 5 mg/kg day 30 to 60, then 10 mg/kg day 60 to 90, group 8): 1.38±0.92 | Histological Scores (mean vascular histologic score) ([3]; Lef 5 mg/kg day 30 to 60, then 10 mg/kg day 60 to 90, group 8, listed as Lef): 1.4 ± 0.9 | Histological Scores (mean vascular histologic score) ([3]; Lef 5 mg/kg from day 30 to day 60, group 5, sacrificed day 60): 1.55±0.53 | Histological Scores (mean vascular histologic score) ([3]; Lef 5 mg/kg from day 30 to day 60, group 5, sacrificed day 60, listed as Lef): 1.6 ± 0.5 | prolongation of survival ([4]; 5 mg/kg by gavage, 7- or 14-day course from day of transplantation): approximately equal prolongations of survival | mononuclear leukocyte infiltration ([4]; started at day 4): completely cleared the mononuclear leukocyte infiltration on histological analysis | mean survival time of the cardiac allografts ([4]; started at day 4 post-transplantation): 25.4±1.4 days | mean survival time of the cardiac allografts ([4]; started at day 6 post-transplantation): 16.3±8.5 days | allospecific IgG response ([4]; started day 4): The generation of allospecific IgG response was inhibited | allospecific cytotoxic antibody production (primarily IgM) ([4]; started day 4): abrupt drop to near background levels after 7 days of treatment | reversal of acute rejection ([4]; therapy post-transplantation): effective in reversing acute rejection as determined by both functional and histological criteria | survival (renal allograft; 5 or 10 mg/kg/day by gavage for 30 days): more than 60 days | protection (renal allograft; BN-LEW renal transplant): very similar to the protection attainable with CsA treatment | prevention of tubulointerstitial nephritis [5]: very effective | reduction of incidence of auto-antibody formation [5]: much more effective than any of the other drugs in reducing the incidence of auto-antibody formation | prevention of tubulointerstitial nephritis ([5]; listed as Leflunomide): as effective as Cyclosporine A, and was more effective than prednisolone, naproxen or indomethacin in preventing disease development | effect on arthritis [6]: suppresses acute inflammation and protects animals from new inflammatory episodes or acute exacerbation of chronically inflamed joints
